Reference: paper PMC11345841, “Exploring 2-Sulfonylpyrimidine Warheads as Acrylamide Surrogates for Targeted Covalent Inhibition: A BTK Story” (Journal of Medicinal Chemistry, 2024)
Where two headings read alike, the source gives them in different places.

How the values were obtained:
[1] = target: T1, FLT3(D835H) (Homo sapiens, UniProt P36888, D835H); experiment: KINOMEscan ScanTK; assay type: binding
T1 construct: purchased Eurofins DiscoverX KINOMEscan (scanTK)
T1 sequence (P36888 27-993 D835H): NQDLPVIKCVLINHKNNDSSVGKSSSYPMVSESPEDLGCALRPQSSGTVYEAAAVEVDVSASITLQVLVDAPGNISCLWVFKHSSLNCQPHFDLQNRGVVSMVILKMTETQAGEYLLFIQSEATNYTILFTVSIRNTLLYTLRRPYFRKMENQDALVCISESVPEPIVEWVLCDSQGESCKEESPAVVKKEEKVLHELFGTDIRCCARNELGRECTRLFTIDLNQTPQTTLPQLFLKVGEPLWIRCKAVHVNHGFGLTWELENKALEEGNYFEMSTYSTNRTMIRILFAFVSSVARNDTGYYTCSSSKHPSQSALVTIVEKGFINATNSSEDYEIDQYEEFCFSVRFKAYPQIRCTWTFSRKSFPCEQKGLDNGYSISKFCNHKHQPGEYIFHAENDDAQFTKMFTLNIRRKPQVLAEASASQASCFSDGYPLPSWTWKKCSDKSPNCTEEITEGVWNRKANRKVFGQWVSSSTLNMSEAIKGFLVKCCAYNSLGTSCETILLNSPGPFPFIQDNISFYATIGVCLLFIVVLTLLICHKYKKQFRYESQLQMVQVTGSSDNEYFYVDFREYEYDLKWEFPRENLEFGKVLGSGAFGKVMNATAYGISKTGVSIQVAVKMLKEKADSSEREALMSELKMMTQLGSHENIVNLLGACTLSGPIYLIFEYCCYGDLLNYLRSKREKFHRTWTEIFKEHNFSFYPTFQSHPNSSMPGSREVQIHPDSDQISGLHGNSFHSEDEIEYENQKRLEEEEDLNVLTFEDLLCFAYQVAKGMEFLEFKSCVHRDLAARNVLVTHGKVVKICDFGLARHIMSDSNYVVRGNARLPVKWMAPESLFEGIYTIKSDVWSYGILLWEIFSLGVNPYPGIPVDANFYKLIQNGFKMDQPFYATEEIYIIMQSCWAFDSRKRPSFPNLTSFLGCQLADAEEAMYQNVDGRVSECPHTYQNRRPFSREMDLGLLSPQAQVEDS

[2] = target: T2, AXL (Homo sapiens, UniProt P30530); experiment: KINOMEscan ScanTK; assay type: binding
T2 construct: purchased Eurofins DiscoverX KINOMEscan (scanTK)
T2 sequence (P30530 26-894): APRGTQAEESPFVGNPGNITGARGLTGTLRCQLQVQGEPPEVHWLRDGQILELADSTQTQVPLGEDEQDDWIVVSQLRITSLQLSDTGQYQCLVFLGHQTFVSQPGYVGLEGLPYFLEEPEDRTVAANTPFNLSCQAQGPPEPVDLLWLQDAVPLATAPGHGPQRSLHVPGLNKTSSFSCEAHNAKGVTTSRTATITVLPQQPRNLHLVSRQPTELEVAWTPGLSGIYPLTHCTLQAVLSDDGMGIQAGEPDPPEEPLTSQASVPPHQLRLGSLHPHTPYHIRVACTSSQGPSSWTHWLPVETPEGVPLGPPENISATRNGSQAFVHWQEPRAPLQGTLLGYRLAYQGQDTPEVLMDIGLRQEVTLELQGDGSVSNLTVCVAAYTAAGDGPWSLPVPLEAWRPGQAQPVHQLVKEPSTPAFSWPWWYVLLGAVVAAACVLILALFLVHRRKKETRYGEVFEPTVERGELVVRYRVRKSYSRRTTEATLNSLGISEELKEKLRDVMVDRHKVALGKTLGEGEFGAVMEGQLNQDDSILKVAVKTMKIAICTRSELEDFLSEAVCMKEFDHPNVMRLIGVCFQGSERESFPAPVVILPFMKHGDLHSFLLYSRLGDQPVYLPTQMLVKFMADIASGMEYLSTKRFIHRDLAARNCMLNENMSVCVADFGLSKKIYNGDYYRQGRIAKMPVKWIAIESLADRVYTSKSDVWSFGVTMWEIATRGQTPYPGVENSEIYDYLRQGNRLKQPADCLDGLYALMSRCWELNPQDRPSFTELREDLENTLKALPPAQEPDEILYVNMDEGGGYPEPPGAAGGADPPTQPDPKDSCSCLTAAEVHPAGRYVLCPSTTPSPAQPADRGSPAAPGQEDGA

[3] = target: T3, ABL1(T315I)-phosphorylated (Homo sapiens, UniProt P00519, T315I); experiment: KINOMEscan ScanTK; assay type: binding
T3 construct: purchased Eurofins DiscoverX KINOMEscan (scanTK)

[4] = target: T4, TRKB (Homo sapiens, UniProt Q16620); experiment: KINOMEscan ScanTK; assay type: binding
T4 construct: purchased Eurofins DiscoverX KINOMEscan (scanTK)
T4 sequence (Q16620 32-822): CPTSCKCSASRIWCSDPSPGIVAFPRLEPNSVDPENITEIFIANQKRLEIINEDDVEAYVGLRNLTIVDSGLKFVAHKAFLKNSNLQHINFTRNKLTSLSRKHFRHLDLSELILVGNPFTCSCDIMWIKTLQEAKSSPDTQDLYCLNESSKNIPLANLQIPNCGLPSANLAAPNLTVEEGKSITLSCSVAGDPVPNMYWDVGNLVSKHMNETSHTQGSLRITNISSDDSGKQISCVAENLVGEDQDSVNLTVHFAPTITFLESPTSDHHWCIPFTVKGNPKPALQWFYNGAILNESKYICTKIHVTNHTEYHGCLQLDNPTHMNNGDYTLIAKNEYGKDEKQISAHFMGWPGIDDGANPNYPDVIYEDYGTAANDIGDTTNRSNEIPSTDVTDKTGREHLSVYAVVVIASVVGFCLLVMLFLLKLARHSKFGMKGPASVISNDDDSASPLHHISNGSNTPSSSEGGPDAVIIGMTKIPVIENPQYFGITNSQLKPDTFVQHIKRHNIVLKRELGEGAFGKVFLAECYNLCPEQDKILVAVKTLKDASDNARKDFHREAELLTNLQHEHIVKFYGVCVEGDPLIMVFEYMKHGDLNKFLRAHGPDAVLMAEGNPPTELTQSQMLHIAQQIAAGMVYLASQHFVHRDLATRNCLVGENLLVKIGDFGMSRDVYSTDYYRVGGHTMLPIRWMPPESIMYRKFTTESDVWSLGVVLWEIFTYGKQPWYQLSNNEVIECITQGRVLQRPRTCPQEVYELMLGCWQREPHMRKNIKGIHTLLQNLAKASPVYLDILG

[5] = target: T5, ABL1-nonphosphorylated (Homo sapiens, UniProt P00519); experiment: KINOMEscan ScanTK; assay type: binding
T5 construct: purchased Eurofins DiscoverX KINOMEscan (scanTK)

[6] = target: T6, ITK, full length (Homo sapiens, UniProt Q08881); experiment: PhosphoSens enzymatic IC50 (AssayQuant)
T6 sequence (Q08881 1-620): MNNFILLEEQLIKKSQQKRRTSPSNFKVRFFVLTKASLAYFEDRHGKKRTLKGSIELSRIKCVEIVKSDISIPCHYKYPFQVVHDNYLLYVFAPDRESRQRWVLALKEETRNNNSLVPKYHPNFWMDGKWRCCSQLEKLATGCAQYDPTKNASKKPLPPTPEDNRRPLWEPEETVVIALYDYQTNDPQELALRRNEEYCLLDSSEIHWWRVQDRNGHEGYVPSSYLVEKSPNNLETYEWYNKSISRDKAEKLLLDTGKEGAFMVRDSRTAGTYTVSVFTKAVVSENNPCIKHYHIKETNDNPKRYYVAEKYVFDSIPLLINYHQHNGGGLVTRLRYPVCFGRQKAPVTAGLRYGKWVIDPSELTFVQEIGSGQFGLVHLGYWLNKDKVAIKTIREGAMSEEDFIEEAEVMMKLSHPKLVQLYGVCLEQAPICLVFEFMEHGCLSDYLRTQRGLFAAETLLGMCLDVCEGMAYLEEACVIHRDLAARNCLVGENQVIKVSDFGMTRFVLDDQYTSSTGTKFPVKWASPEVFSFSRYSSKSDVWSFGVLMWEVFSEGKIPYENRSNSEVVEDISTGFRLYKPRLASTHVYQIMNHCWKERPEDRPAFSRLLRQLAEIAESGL

[7] = target: T7, ROS1 (Homo sapiens, UniProt P08922); experiment: KINOMEscan ScanTK; assay type: binding; details: for %Control difference versus reference Ib at 1 µM: read-out: % difference (compound - Ib %Control)
T7 construct: purchased Eurofins DiscoverX KINOMEscan (scanTK)
T7 sequence (P08922 28-2347): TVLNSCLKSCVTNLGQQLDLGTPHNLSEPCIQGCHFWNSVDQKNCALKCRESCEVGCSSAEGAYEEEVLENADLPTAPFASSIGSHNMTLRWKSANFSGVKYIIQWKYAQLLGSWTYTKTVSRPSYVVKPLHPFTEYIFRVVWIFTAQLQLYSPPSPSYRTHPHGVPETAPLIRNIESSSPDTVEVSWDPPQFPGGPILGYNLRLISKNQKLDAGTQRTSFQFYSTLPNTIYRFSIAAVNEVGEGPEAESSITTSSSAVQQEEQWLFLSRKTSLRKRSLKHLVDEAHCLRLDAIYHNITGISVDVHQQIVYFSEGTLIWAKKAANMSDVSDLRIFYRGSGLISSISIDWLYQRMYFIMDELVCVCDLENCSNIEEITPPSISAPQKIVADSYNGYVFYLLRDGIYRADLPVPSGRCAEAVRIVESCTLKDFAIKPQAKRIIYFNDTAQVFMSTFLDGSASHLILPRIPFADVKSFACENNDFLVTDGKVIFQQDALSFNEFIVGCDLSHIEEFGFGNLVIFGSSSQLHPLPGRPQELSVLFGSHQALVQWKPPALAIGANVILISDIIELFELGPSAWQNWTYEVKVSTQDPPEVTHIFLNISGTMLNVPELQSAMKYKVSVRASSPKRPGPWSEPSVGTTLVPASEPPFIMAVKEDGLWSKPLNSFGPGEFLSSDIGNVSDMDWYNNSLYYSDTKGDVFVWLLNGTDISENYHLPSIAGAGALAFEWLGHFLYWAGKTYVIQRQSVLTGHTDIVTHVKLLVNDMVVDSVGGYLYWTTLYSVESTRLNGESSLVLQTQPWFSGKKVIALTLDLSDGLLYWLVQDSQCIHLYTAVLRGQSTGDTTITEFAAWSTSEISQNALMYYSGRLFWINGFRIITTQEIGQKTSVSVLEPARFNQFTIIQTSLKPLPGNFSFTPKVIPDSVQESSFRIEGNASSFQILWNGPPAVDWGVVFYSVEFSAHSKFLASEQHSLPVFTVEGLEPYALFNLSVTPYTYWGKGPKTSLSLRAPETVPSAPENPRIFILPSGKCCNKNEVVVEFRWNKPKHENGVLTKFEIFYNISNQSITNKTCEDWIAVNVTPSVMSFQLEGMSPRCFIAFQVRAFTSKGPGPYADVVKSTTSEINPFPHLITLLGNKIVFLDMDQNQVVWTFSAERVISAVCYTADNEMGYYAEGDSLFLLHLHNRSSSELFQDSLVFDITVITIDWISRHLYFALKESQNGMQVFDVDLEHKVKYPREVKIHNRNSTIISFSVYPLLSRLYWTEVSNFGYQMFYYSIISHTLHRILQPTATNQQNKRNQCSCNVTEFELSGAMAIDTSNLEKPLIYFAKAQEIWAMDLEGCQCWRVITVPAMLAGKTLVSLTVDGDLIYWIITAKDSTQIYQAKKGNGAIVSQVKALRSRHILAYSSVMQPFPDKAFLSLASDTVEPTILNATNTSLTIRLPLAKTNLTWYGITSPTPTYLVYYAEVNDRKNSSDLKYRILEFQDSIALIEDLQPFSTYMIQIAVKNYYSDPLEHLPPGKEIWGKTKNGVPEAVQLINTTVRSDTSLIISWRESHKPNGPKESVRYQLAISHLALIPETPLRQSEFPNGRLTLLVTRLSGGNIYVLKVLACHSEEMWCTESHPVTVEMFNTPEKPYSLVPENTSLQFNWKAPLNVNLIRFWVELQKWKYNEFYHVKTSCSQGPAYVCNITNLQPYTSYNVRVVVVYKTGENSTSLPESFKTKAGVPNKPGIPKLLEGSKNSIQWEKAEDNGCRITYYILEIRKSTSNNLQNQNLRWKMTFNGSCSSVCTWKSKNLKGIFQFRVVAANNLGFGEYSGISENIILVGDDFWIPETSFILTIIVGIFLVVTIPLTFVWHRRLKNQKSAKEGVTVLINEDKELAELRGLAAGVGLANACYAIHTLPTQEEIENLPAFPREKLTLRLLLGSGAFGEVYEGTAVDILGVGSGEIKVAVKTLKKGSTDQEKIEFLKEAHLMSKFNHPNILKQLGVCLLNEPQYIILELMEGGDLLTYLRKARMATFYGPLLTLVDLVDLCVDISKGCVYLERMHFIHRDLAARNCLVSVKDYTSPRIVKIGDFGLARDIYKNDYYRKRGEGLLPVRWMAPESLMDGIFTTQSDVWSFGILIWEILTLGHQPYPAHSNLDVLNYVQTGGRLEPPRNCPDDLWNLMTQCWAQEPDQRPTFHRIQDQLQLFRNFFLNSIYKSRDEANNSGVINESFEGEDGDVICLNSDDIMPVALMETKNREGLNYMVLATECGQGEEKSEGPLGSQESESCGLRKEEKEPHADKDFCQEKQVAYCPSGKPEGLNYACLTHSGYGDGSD

[8] = @1000nM, TRKB, read-out: %Control
[9] = TRKB, read-out: %Control @1000nM

Row | Compound | difference in %Control from compound Ib at 1 µM ([1]; @1000nM) [%] | remaining binding at 1 µM ([1]; @1000nM, read-out: %Control) [%] | remaining binding at 1 µM ([1]; read-out: %Control @1000nM) [%] | difference in %Control versus compound Ib at 1 µM ([2]; @1000nM) [%] | remaining binding at 1 µM ([2]; @1000nM, read-out: %Control) [%] | remaining binding at 1 µM ([2]; read-out: %Control @1000nM) [%] | difference in %Control versus compound Ib at 1 µM ([3]; @1000nM) [%] | remaining binding at 1 µM ([3]; @1000nM, read-out: %Control) [%] | remaining binding at 1 µM ([3]; read-out: %Control @1000nM) [%] | difference in %Control versus compound Ib at 1 µM ([4]; @1000nM, TRKB) [%] | remaining binding at 1 µM [4, 8] [%] | remaining binding at 1 µM [4, 9] [%] | difference in %Control from reference compound Ib at 1 µM ([5]; @1000nM) [%] | remaining binding at 1 µM ([5]; @1000nM, read-out: %Control) [%] | remaining binding at 1 µM ([5]; read-out: %Control @1000nM) [%] | IC50 [6] [nM] | %Control difference versus reference Ib at 1 µM ([7]; @1000nM) [%] | remaining binding at 1 µM ([7]; @1000nM, read-out: %Control) [%] | remaining binding at 1 µM ([7]; read-out: %Control @1000nM) [%] | other results
1 | CNC(=O)c1cnc(S(C)(=O)=O)nc1N1CCCC(n2nc(-c3ccc(Oc4ccccc4)cc3)c3c(N)ncnc32)C1 (centres unmarked) [Compound 8d, 4-(3-(4-Amino-3-(4-phenoxyphenyl)-1H-pyrazolo[3,4-d]pyrimidin-1-yl)piperidin-1-yl)-N-methyl-2-(methylsulfonyl)pyrimidine-5-carboxamide] | 47 | 83 | 83 | 22 | 97 | 97 | 6 | 85 | 85 | -5 | 87 | 87 | 24.5 | 33 | 33 | > 1000 | 3 | 100 | 100 | 
2 | C=CC(=O)N1CCC[C@@H](n2nc(-c3ccc(Oc4ccccc4)cc3)c3c(N)ncnc32)C1 [Compound 1g, Ibrutinib, reference compound] |  | 36 | 36 |  | 75 | 75 |  |  |  |  |  |  |  |  |  |  |  | 97 | 97 | remaining binding at 1 µM ([4]; read-out: %Control): 92%; remaining binding at 1 µM ([4]; read-out: %Control @1000nM): 92%

Continued, in another order:

Row | difference in %Control from compound Ib at 1 µM ([1]; @1000nM) [%] | remaining binding at 1 µM ([1]; @1000nM, read-out: %Control) [%] | remaining binding at 1 µM ([1]; read-out: %Control @1000nM) [%] | difference in %Control versus compound Ib at 1 µM ([2]; @1000nM) [%] | remaining binding at 1 µM ([2]; @1000nM, read-out: %Control) [%] | remaining binding at 1 µM ([2]; read-out: %Control @1000nM) [%] | difference in %Control versus compound Ib at 1 µM ([3]; @1000nM) [%] | remaining binding at 1 µM ([3]; @1000nM, read-out: %Control) [%] | remaining binding at 1 µM ([3]; read-out: %Control @1000nM) [%] | difference in %Control versus compound Ib at 1 µM ([4]; @1000nM, TRKB) [%] | remaining binding at 1 µM [4, 8] [%] | remaining binding at 1 µM [4, 9] [%] | difference in %Control from reference compound Ib at 1 µM ([5]; @1000nM) [%] | remaining binding at 1 µM ([5]; @1000nM, read-out: %Control) [%] | remaining binding at 1 µM ([5]; read-out: %Control @1000nM) [%] | IC50 [6] [nM] | %Control difference versus reference Ib at 1 µM ([7]; @1000nM) [%] | remaining binding at 1 µM ([7]; @1000nM, read-out: %Control) [%] | remaining binding at 1 µM ([7]; read-out: %Control @1000nM) [%] | Compound | other results
3 | 32 | 68 | 68 | 25 | 100 | 100 | -9 | 70 | 70 | -17 | 75 | 75 | 38.5 | 47 | 47 | > 1000 | -4 | 93 | 93 | Cc1cnc(S(C)(=O)=O)nc1N1CCCC(n2nc(-c3ccc(Oc4ccccc4)cc3)c3c(N)ncnc32)C1 (centres unmarked) [Compound 8a, 1-(1-(5-Methyl-2-(methylsulfonyl)pyrimidin-4-yl)piperidin-3-yl)-3-(4-phenoxyphenyl)-1H-pyrazolo[3,4-d]pyrimidin-4-amine] | 
4 | 60 | 96 | 96 | 25 | 100 | 100 | -7 | 72 | 72 | -15 | 77 | 77 | 36.5 | 45 | 45 |  | 3 | 100 | 100 | CCOC(=O)c1cnc(S(C)(=O)=O)nc1N1CCC[C@@H](n2nc(-c3ccc(Oc4ccccc4)cc3)c3c(N)ncnc32)C1 [Compound 8c, Ethyl (R)-4-(3-(4-Amino-3-(4-phenoxyphenyl)-1H-pyrazolo[3,4-d]pyrimidin-1-yl)piperidin-1-yl)-2-(methylsulfonyl)pyrimidine-5-carboxylate] | 
5 | 38 | 74 | 74 | 25 | 100 | 100 | -11 | 68 | 68 | 7 | 99 | 99 | 56.5 | 65 | 65 | > 1000 | -11 | 86 | 86 | COC(=O)c1cnc(S(C)(=O)=O)nc1N1CCCC(n2nc(-c3ccc(Oc4ccccc4)cc3)c3c(N)ncnc32)C1 (centres unmarked) [Compound 8b, Methyl 4-(3-(4-Amino-3-(4-phenoxyphenyl)-1H-pyrazolo[3,4-d]pyrimidin-1-yl)piperidin-1-yl)-2-(methylsulfonyl)pyrimidine-5-carboxylate] | 
